Data on one compound can be found in article PMC6600512, “Interactions between β-Lactoglobulin and 3,3′-Diindolylmethane in Model System” (Molecules, 2019).

Molecules are shown by their SMILES.

The target in the assay is T1, β-Lactoglobulin (β-LG) (Bos taurus, UniProt P02754).
T1 construct: gene LGB
T1 sequence (P02754 17-178): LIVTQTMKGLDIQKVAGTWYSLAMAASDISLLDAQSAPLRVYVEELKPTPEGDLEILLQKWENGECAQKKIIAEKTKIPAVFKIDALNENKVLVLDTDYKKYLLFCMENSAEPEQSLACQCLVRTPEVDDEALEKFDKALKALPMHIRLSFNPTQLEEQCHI
Put plainly: intrinsic fluorescence enhancement titration (binding constant from […]/ΔF vs […]/Cq); supported by CD, FT-IR, UV, DLS and zeta potential. Particulars: read-out: intrinsic fluorescence enhancement titration (binding constant from 1/ΔF vs 1/Cq) (converted).

Take `c1ccc2c(Cc3c[nH]c4ccccc34)c[nH]c2c1` [DIM, 3,3′-diindolylmethane]: the Kd is 1490 nM.
